Results from ChEMBL document CHEMBL3046037, “Genetic analysis and molecular characterisation of laboratory and field mutants of Botryotinia fuckeliana (Botrytis cinerea) resistant to QoI fungicides” (Pest Manag Sci, 2012).
≈ marks a conversion by molar mass, not a printed value. Calls of active or inactive are those of the source. The calls are words filed in the database; no cut-off is given here.

Columns and labels:
Botrytis cinerea [1] = test: Antifungal activity against QoI fungicide-resistant Botryotinia fuckeliana lab isolates assessed as inhibition of colony growth; assay type: functional, organism-based
Botrytis cinerea [2] = test: Antifungal activity against Botryotinia fuckeliana SAS56 assessed as inhibition of colony growth; assay type: functional, organism-based
Botrytis cinerea [3] = test: Resistance index, ratio of EC50 for QoI fungicide-resistant Botryotinia fuckeliana field isolates expressing cytb G143A mutant gene to EC50 for Botryotinia fuckeliana SAS405; assay type: functional
Botrytis cinerea [4] = test: Antifungal activity against Botryotinia fuckeliana SAS56 assessed as complete inhibition of colony growth at […]; assay type: functional, organism-based
Botrytis cinerea [5] = test: Resistance index, ratio of EC50 for QoI fungicide-resistant Botryotinia fuckeliana field isolates expressing cytb G143A mutant gene to EC50 for Botryotinia fuckeliana SAS56; assay type: functional
Botrytis cinerea [6] = test: Resistance index, ratio of EC50 for QoI fungicide-resistant Botryotinia fuckeliana lab isolates to EC50 for Botryotinia fuckeliana SAS56; assay type: functional
Botrytis cinerea [7] = test: Antifungal activity against Botryotinia fuckeliana SAS405 assessed as inhibition of colony growth; assay type: functional, organism-based
Botrytis cinerea [8] = test: Antifungal activity against QoI fungicide-resistant Botryotinia fuckeliana field isolates expressing cytb G143A mutant gene assessed as inhibition of colony growth; assay type: functional, organism-based
Botrytis cinerea [9] = test: Resistance index, ratio of EC50 for QoI fungicide-resistant Botryotinia fuckeliana lab isolates to EC50 for Botryotinia fuckeliana SAS405; assay type: functional
Botrytis cinerea [10] = test: Antifungal activity against Botryotinia fuckeliana SAS56 assessed as complete inhibition of colony growth at 3 mg/ml; assay type: functional, organism-based

## CO/N=C(\C(=O)OC)c1ccccc1CO/N=C(\C)c1cccc(C(F)(F)F)c1
Botrytis cinerea [1]
  EC50: > 100 µg/mL
Botrytis cinerea [2]
  EC50: < 0.01 µg/mL
  MIC: 1 µg/mL (≈ 2.45 µM)
Botrytis cinerea [3]
  Ratio EC50: >1000
Botrytis cinerea [4]
  growth inhibition (GI): Active
Botrytis cinerea [5]
  Ratio EC50: >1000
Botrytis cinerea [6]
  Ratio EC50: >1000
Botrytis cinerea [7]
  EC50: 0.01 µg/mL (≈ 0.0245 µM)
  MIC: 1 µg/mL (≈ 2.45 µM)
Botrytis cinerea [8]
  EC50: > 100 µg/mL
Botrytis cinerea [9]
  Ratio EC50: >1000

## CO/N=C(/C(=O)OC)c1ccccc1COc1ccccc1C [KRESOXIM-METHYL]
Botrytis cinerea [2]
  EC50: 0.01 µg/mL (≈ 0.0319 µM)
Botrytis cinerea [7]
  EC50: 0.01 µg/mL (≈ 0.0319 µM)
Botrytis cinerea [10]
  growth inhibition (GI): Active

## CO/C=C(/C(=O)OC)c1ccccc1Oc1cc(Oc2ccccc2C#N)ncn1 [AZOXYSTROBIN]
Botrytis cinerea [2]
  EC50: 0.1 µg/mL (≈ 0.248 µM)
Botrytis cinerea [7]
  EC50: 0.1 µg/mL (≈ 0.248 µM)
Botrytis cinerea [10]
  growth inhibition (GI): Active
